According to patent publication US8129427B2, “2-phenylethylamino derivatives as calcium and/or sodium channel modulators” (Newron Pharmaceuticals S.p.A., priority 2005, dated 2012):

Assays:
[1] = tested on: chronic constriction injury model in the rat; experiment: Bennett model of neuropathic pain in rats (cold allodynia); assay type: in vivo; details: AUD of cold allodynia as percent inhibition of vehicle control
Method: Effects on neuropathic pain are tested in the chronic constriction injury model in the rat (Bennett, G. J. and Xie, Y. K., A peripheral mononeuropathy in rat that produces disorders of pain sensation like those seen in man, Pain, 33 (1988) 87-107). Under pentobarbital anesthesia (Nembutal, 50 mg/kg, i.p.), unilateral multiple ligations are performed on male Sprague-Dawley rats (140-160 g) at the right common sciatic nerve. The sciatic nerve is exposed by blunt dissection at the level of mid-thigh and four loose ligatures (5-0 chromic catgut) are placed around the nerve taking care not to interrupt the epineural circulation. After operation, animals are allowed to recover for one week. Animals develop a cold allodynia which is stable for at least five weeks. […] The animals, randomly assigned to groups of 10 for each test dose and vehicle, are observed for periods of 2 minutes before and after application of test compound and the number of brisk withdrawal reactions is counted. […] Percent maximal possible effect (% MPE) and standard error of the mean (SEM) of each time point is determined with the pre-test value used as […]. The area under the data (AUD) is calculated for the observation period and expressed as percent inhibition of vehicle control as shown in Table 8. Significance is calculated by paired t-test on the percent AUD values.

TTXs sodium channels = experiment: TTXs-sodium channel influx assay (membrane potential fluorescence); assay type: cell-based, rat; details: ND7/23 cells, veratridine 100 μM
Method: ND7/23 rat dorsal root ganglion-derived cell line endogenously expresses a mixed population of TTXs sodium channels (such as Nav1.3, Nav1.2, Nav1.1, Nav1.6). These cells lack of TTXr sodium channels as shown by the absence of their respective transcripts. ND7/23 cells were grown in DMEM supplemented with 10% FBS and 1 mM sodium piruvate.
The cells were seeded at 50,000 cells/well on 96 poly-L-lysine-coated plates and further incubated for 18-24 h before use.
The Membrane Potential Kit Assay (Molecular Devices), based on a negatively charged fluorescent dye able to monitor changes in membrane potential caused by the sodium influx due to the channel opening, was used for the assay.
Cells were incubated with the dye loading for 30 minutes at 25° C. Then, 100 nM of the toxin Anemonia sulcata (used as enhancer of the channel opener response) alone or in the presence of TTX (as reference standard) or test compound were added for further 15 minutes.
The fluorescence (excitation: 530 nm, emission: 565 nm wavelength) was measured before and after (40-45 s) the automated injection of the sodium channel opener veratridine (100 μM) using a Victor plate reader (Perkin Elmer).
The inhibition curves were calculated from 5 concentrations, each in triplicate, and the IC50 determined using a linear regression analysis.

[2] = target: T1, recombinant Nav 1.3 channels (Homo sapiens, UniProt Q9NY46); experiment: Patch clamp studies of sodium currents inhibition in HEK293 cells; assay type: cell-based; details: tonic block, preconditioning −50 mV (half maximal steady-state inactivated condition); read-out: IC50 (Vhalf)
T1 construct: expressed in transfected cells; host or cells: HEK293 cells
Method: Cells and methods: Functional inhibition of the sodium currents was studied using whole cell patch clamp methods (Hamill O. P., Marty A., Neher E., Sakmann B., Sigworth F. J., Pflugers Arch. (1981) 391 (2): 85-100) on HEK293 cells expressing recombinant Nav 1.3 channels. Membrane currents were recorded as described in the example above.
For sodium current recording control bath solution contained (mM): NaCl (80), Choline chloride (38), CaCl2 (1.3), MgCl2 (2), KCl (2), CdCl2 (0.4), NiCl2 (0.3), TEA.Cl (20), Hepes (10), Glucose (10). Internal pipette solution consisted of (mM): EGTA (10), NaCl (10), CaCl2 (1.3), MgCl2 (2), Hepes (10), CsF (130), MgATP (1).
Compounds were dissolved as 20 mM stock solutions in DMSO and then diluted to the final concentration in the external solutions.
Voltage protocols and data analyses: A two-step protocol was used to determine the voltage dependence of the block:
sodium current was activated by a 30 ms step pulse to 10 mV (test pulse) from a 2000 ms preconditioning potential of −100 mV (resting condition) or −50 mV (half maximal steady-state inactivated condition), respectively.
The amplitude of sodium current peaks evoked by the respective test pulses at a frequency of 0.06 Hz were measured before and after exposure to the test substance. Tonic block of currents was calculated as the difference between the Nacurrent peak measured at the end of a stabilization period in the control external bath solution and the current peak measured at the end of test substance perfusion period (when steady state is reached) divided by control peaks. Drug concentration-inhibition curves were obtained by plotting tonic blocks versus drug concentrations. Dose-response curves were fitted to the tonic block data, according to the logistic equation: y=A2+(A1−A2)/[1+(x/IC50)^p]. A1 and A2 are fixed values of 0 and 1 corresponding to 0 and 100% current inhibition, x is the drug concentration, IC50 is the drug concentration resulting in 50% current inhibition and p is the corresponding slope factor.

T1 sequence (Q9NY46 whole entry): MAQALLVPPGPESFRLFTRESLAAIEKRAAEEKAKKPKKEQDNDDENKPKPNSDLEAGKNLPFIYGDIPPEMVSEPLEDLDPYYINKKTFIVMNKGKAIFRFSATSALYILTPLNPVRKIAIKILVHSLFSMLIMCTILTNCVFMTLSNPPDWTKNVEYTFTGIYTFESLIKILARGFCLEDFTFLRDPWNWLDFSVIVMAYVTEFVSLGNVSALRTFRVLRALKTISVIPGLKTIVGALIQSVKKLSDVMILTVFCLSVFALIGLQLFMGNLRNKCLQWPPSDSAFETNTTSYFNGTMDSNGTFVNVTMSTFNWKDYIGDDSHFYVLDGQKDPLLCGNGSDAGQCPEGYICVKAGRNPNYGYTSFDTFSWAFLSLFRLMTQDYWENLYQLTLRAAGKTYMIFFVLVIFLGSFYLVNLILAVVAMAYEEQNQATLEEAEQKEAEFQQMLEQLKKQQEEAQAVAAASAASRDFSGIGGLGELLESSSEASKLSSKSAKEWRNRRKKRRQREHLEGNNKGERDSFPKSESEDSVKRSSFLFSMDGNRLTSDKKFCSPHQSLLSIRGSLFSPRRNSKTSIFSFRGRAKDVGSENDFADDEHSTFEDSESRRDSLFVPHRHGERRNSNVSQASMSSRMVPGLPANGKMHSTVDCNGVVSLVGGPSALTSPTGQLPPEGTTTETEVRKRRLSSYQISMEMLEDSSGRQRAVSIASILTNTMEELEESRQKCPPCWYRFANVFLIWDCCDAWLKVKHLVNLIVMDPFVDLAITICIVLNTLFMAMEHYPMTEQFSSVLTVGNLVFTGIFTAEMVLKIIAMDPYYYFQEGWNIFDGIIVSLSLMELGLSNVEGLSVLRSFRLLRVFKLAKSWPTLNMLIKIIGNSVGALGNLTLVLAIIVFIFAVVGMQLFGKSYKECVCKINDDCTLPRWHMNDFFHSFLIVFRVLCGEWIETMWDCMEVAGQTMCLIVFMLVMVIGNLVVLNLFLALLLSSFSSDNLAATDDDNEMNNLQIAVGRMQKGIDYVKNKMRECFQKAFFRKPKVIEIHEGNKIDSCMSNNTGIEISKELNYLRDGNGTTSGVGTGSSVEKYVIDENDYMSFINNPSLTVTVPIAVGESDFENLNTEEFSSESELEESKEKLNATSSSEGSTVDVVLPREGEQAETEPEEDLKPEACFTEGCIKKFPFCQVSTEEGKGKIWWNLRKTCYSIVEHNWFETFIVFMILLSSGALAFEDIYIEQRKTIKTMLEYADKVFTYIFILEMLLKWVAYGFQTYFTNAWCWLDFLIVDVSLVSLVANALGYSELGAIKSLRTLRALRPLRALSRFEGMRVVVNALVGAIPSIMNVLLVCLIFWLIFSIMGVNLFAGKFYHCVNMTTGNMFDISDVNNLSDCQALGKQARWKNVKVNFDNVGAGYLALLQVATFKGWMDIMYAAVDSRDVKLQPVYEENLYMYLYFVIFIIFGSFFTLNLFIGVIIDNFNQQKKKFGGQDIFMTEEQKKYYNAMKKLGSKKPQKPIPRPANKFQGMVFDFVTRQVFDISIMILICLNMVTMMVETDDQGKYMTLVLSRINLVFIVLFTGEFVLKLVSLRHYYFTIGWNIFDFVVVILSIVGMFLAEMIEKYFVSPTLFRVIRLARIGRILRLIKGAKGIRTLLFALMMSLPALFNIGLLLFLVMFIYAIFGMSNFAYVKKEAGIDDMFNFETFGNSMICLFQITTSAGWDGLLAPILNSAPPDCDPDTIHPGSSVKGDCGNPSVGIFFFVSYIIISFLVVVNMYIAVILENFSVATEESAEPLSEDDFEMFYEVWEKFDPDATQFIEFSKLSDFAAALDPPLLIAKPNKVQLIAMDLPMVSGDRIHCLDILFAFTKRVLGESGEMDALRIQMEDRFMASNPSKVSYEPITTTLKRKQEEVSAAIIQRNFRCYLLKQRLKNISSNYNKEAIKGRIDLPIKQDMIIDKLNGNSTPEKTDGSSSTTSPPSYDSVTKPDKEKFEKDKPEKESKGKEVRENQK

Compound: CCCCOc1cccc(CCN(CC(=O)N(C)C)CC2CCOC2)c1.Cl (racemic) [Example 96, 2-[[2-(3-Butoxy-phenyl)-ethyl]-(tetrahydrofuran-3-ylmethyl)amino]-N,N-dimethyl-acetamide hydrochloride]
- Change vs. Control ([1]; 0.1 mg/kg p.o.): 35.7%
- IC50 (TTXs sodium channels): 2 µM
- IC50 [2]: 3.1 µM

Compound: C[C@H](NCc1ccc(OCc2ccccc2F)cc1)C(N)=O [ralfinamide, (S)-(+)-2-[4-(2-fluoro-benzyloxy)-benzylamino]-propanamide, reference compound]
- Change vs. Control ([1]; 1.0 mg/kg p.o.): 23.7%
- IC50 (TTXs sodium channels): 9.5 µM
- IC50 [2]: 15 µM
